Here are results for 17 compounds from patent publication US9346761B2, “Arginine methyltransferase inhibitors and uses thereof” (Epizyme, Inc., priority 2013, dated 2016).

Assay [1] has as its target T1, Full-length human PRMT1 isoform 1 (Homo sapiens, UniProt Q99873).
T1 construct: GST-tagged PRMT1; made in house; host or cells: High Five insect cells (baculovirus, pFastBacI)
Description: PRMT1 biochemical assay (3H-SAM Flashplate, peptide substrate). Put shortly: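 GST-tagged full-length PRMT1 from baculovirus-infected cells, preincubated 30 min at room temperature with compound in 20 mM Bicine pH 7.6, TCEP, BSG, Tween 20. Reaction started with 3H-SAM plus biotinylated peptide, stopped with 300 uM unlabelled SAM. Streptavidin Flashplate capture and scintillation counting; % inhibition curve-fitted for IC50.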

Assay [2] deals with T2, Full-length human PRMT6 (Homo sapiens, UniProt Q96LA8).
T2 construct: Flag-PRMT6-His was eluted with 200 ug/ml FLAG peptide in the same buffer; made in house; host or cells: HEK 293F cells (BacMam virus, pFastBacMam)
T2 sequence (Q96LA8 with tags, fused parts or gaps): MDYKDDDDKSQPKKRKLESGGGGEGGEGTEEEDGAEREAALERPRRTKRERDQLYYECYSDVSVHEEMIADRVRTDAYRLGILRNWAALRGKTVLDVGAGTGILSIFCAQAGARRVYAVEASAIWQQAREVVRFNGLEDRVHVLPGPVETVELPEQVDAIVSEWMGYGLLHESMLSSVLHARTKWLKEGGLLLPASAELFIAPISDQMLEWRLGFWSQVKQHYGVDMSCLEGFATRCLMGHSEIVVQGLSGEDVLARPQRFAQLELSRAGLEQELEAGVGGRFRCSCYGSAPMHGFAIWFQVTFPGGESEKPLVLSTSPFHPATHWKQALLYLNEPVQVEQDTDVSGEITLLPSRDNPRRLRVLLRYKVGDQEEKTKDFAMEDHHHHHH
As to the kind of experiment: PRMT6 biochemical assay (3H-SAM Flashplate, peptide substrate). Put shortly:
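Flag-PRMT6-His from baculovirus-infected cells, preincubated with compound 30 min at room temperature, then SAM/3H-SAM and biotinylated H4 36-50 peptide added; 20 mM Bicine pH 7.6, TCEP, BSG, Tween 20. Quenched with cold SAM, captured on streptavidin Flashplates; % inhibition from SAH/DMSO controls, 3- or 4-parameter IC50 fit.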

Bounds are passed on as bounds.

T1 sequence (Q99873 with tags, fused parts or gaps): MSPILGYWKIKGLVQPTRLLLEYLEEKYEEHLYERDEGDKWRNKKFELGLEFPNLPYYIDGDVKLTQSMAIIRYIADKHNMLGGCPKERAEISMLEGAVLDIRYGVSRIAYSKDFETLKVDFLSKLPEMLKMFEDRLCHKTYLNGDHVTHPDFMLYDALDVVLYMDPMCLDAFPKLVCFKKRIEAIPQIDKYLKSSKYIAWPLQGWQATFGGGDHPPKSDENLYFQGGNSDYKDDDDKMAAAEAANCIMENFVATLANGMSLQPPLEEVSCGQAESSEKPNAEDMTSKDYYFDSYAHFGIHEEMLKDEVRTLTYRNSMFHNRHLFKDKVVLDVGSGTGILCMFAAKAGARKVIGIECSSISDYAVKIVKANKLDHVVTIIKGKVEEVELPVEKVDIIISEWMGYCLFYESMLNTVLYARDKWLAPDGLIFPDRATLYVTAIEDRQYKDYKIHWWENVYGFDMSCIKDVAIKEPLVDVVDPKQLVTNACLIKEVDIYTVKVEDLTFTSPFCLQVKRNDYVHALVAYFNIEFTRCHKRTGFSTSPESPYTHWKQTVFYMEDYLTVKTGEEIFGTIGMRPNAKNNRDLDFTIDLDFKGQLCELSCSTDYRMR

What is called IC50 is the concentration needed to halve the response being measured. A lower IC50 goes with greater potency. As for `COc1ccc(-c2n[nH]cc2CN(C)CCN)c(C)c1` [Compound 155], the IC50 in assay [1] and in assay [2] was below 100 nM in each case.
Turning to `CN(CCN)Cc1c[nH]nc1-c1cc(Cl)ccc1F` [Compound 156], the IC50 was 101 to 1000 nM in assay [1] and below 100 nM in assay [2].
As for `COc1ccc(Cl)cc1-c1n[nH]cc1CN(C)CCN` [Compound 157], the IC50 lay within 1010 to 3000 nM in assay [1] and 101 to 1000 nM in assay [2].
`Cc1ccc(C#N)cc1-c1n[nH]cc1CN(C)CCN` [Compound 158]: the IC50 in assay [1] was 1010 to 3000 nM; in assay [2] it was 101 to 1000 nM.
In the case of `Cc1ccc(F)cc1-c1n[nH]cc1CN(C)CCN` [Compound 159], the IC50 in assay [1] and in assay [2] was below 100 nM each time.
As to `COc1ccc(F)cc1-c1n[nH]cc1CN(C)CCN` [Compound 160], the IC50 in assay [1] and in assay [2] was 101 to 1000 nM each time.
For `Cc1ccccc1-c1n[nH]cc1CN(C)CCN` [Compound 161], the IC50 in assay [1] is 101 to 1000 nM; in assay [2], below 100 nM.
Consider `Cc1ccc(-c2n[nH]cc2CN(C)CCN)cc1` [Compound 162], for which the concentration for half-maximal inhibition (IC50) in assay [1] and in assay [2] was below 100 nM in each case.
Consider `CCN(C)C(=O)c1ccc(-c2n[nH]cc2CN(C)CCN)cc1` [Compound 163], for which the IC50 is 101 to 1000 nM in assay [1] and below 100 nM in assay [2].
As for `CC(C)CN(C)C(=O)c1ccc(-c2n[nH]cc2CN(C)CCN)cc1` [Compound 164], the IC50 was 101 to 1000 nM in assay [1] and below 100 nM in assay [2].
For the compound `CCOc1ccc(-c2n[nH]cc2CN(C)CCN)cc1` [Compound 166], the IC50 in assay [1] and in assay [2] was below 100 nM each time.
Consider `COCCOc1ccc(-c2n[nH]cc2CN(C)CCN)cc1` [Compound 167], for which the IC50 in assay [1] and in assay [2] was below 100 nM each time.
Turning to `Cc1[nH]nc(-c2ccc(F)cc2)c1CN(C)CCN` [Compound 169], the IC50 in assay [1] is 101 to 1000 nM; in assay [2] it was below 100 nM.
For the compound `CC(C)Cc1ccc(-c2c[nH]nc2CN(C)CCN)cc1` [Compound 170], the IC50 in assay [1] and in assay [2] was below 100 nM each time.
For the compound `NCCN(CCO)Cc1c[nH]nc1-c1ccc(F)cc1` [Compound 171], the IC50 in assay [1] lay within 101 to 1000 nM; in assay [2], 1010 to 3000 nM.
As for `CN(CCN)Cc1c[nH]nc1-c1ccc(OCCN2CCOCC2)cc1` [Compound 172], the values for the IC50 in assay [1] and in assay [2] were 101 to 1000 nM and below 100 nM, respectively.
`CN(CCN)Cc1c[nH]nc1-c1ccc2c(c1)NC(=O)CO2` [Compound 173]: the IC50 in assay [1] is 101 to 1000 nM; in assay [2], below 100 nM.
